Results as given in patent publication US20230074252A1, “DOSAGES AND METHODS FOR TREATING PULMONARY ARTERIAL HYPERTENSION WITH RODATRISTAT” (Altavant Sciences GmbH, priority 2020, published 2023).

Columns and labels:
Experiment in all cases: Direct and time-dependent CYP inhibition, pooled human liver microsomes
Type in all cases: in vitro ADME
Design in all cases: from tissue; host or cells: pooled human liver microsomes (n=200 donors)
[1] = molecular target: T1, CYP2B6 (Homo sapiens, UniProt P20813); settings: for IC50: human liver microsomes, read-out: In vitro IC50, direct inhibition, CYP2B6
T1 sequence (P20813 1-491): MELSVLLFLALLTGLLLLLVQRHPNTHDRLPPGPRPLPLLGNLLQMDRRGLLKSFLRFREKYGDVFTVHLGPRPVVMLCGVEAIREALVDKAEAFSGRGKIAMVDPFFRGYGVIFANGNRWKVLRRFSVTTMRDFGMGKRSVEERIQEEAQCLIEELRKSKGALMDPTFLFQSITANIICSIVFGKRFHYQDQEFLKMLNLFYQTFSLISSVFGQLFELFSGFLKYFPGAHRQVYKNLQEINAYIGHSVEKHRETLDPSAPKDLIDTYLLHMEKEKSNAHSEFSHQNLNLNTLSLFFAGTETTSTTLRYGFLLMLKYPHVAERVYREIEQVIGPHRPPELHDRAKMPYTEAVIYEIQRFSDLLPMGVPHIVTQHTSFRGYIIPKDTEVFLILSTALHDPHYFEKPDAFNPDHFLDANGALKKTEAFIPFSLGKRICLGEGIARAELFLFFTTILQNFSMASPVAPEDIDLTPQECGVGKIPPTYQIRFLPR
Description: (§1) “mM^”=millimolar. CYP induction was evaluated using cultured human hepatocytes (from 3 donors) treated once daily for 3 days with RE/R concentrations to […].
(§2) The competitive inhibition of specific CYP isoforms was investigated for RVT-1201 and KAR5417 in human liver microsomes (HLM) (XT155056). Of the […] evaluated in vitro (CYP1A2, CYP2B6, CYP2C8, CYP2C9, CYP2D6, CYP3A4, CYP3A5), RVT-1201 IC50 estimates were determined for CYP2B6, CYP2C8 and CYP3A4 only. […] For each IC50 estimate, substrate concentration and Km were used to estimate RVT-1201 and KAR5417 Ki.

[2] = molecular target: CYP2C19 (Homo sapiens, UniProt P33261)
Description: as §1, §2

[3] = molecular target: T2, CYP1A2 (Homo sapiens, UniProt P05177)
T2 sequence (P05177 1-516): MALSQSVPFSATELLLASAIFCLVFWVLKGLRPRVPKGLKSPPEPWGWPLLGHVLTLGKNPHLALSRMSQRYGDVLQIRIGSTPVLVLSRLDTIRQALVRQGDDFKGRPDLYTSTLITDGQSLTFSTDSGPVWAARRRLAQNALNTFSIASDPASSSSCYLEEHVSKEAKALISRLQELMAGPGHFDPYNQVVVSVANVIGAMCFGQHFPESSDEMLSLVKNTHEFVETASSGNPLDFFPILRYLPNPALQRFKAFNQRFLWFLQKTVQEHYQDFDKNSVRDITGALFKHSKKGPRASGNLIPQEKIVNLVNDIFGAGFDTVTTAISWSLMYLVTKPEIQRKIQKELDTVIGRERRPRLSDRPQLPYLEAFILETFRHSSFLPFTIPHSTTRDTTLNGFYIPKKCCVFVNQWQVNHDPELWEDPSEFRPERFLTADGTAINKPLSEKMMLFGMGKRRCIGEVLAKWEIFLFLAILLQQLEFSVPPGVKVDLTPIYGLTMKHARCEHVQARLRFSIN
Description: as §1, §2

[4] = molecular target: CYP2C9 (Homo sapiens, UniProt P11712); settings: for IC50: human liver microsomes, read-out: In vitro IC50, direct inhibition, CYP2C9
Description: as §1, §2

[5] = molecular target: CYP2D6 (Homo sapiens, UniProt P10635)
Description: as §1, §2

[6] = molecular target: T3, CYP2C8 (Homo sapiens, UniProt P10632); settings: for IC50: human liver microsomes, read-out: In vitro IC50, direct inhibition, CYP2C8; for Calculated R1 Value, CYP2C8: predicted @ 600 mg BID, R1=1+(Imax,unbound/Ki)
T3 sequence (P10632 1-490): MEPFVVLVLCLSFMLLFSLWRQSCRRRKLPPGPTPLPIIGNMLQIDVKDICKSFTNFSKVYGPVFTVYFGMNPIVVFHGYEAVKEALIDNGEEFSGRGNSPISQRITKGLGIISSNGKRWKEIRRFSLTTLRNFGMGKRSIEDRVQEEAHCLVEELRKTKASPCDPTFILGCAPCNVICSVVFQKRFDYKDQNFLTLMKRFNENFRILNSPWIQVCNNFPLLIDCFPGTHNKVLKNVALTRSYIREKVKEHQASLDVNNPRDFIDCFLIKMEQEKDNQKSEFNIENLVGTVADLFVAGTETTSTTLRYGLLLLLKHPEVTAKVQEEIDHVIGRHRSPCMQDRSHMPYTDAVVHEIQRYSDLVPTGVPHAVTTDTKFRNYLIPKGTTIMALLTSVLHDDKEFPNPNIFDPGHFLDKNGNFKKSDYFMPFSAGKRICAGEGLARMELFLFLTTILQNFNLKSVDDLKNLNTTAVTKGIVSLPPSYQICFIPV
Description: as §1, §2

[7] = human, pooled human liver microsomes, 30 μM, range given across CYPs 2B6, 2C9 and 3A4/5

Chain of CYP2C9 (P11712 whole entry): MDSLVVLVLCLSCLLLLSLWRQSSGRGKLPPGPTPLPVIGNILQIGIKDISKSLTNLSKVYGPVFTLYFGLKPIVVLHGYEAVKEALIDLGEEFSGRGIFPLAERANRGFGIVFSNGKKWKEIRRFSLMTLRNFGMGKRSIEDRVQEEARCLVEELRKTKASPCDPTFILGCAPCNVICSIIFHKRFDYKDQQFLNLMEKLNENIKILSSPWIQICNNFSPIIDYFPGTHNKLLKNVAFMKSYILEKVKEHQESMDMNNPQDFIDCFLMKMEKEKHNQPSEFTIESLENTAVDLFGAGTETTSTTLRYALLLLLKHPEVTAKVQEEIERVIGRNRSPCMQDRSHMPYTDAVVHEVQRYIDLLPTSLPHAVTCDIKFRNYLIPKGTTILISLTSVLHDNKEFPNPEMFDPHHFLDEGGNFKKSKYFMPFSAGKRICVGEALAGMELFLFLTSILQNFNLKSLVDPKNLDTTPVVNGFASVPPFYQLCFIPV
Chain of CYP2D6 (P10635 whole entry): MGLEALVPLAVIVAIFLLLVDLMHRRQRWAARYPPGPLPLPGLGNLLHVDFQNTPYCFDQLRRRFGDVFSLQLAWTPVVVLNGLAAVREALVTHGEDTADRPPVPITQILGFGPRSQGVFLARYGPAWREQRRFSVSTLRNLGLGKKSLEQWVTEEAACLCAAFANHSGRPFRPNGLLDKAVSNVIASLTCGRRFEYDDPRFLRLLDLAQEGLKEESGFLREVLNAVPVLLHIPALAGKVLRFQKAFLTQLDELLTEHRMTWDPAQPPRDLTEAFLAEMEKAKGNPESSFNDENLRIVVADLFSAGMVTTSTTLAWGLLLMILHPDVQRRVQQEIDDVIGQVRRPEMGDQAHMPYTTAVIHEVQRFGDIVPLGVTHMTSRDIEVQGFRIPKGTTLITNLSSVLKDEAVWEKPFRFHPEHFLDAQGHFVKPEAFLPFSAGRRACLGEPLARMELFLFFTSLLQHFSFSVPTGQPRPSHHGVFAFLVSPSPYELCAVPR
Chain of CYP2C19 (P33261 whole entry): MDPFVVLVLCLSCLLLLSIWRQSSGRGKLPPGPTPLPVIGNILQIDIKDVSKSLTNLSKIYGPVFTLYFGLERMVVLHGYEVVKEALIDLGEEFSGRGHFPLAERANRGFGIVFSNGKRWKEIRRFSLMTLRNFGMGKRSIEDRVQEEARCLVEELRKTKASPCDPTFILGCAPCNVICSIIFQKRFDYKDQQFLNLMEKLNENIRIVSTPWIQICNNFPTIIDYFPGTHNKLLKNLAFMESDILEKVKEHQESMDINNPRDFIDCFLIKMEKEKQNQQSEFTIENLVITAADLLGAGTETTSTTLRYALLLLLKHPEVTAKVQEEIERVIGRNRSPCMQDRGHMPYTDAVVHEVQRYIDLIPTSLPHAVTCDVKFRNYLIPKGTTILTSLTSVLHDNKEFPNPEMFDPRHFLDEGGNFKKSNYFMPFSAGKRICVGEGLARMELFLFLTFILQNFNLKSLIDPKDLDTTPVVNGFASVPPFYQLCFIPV

Compound	IC50 [1]	Calculated R1 Value, CYP2B6 ([1]; predicted @ 600 mg BID, R1=1+(Imax,unbound/Ki))	IC50 ([2]; human liver microsomes, read-out: In vitro IC50, direct inhibition, CYP2C19)	IC50 ([3]; human liver microsomes, read-out: In vitro IC50, direct inhibition, CYP1A2)	Direct inhibition of CYP2C9 (in words) [4]	IC50 [4]	IC50 ([5]; human liver microsomes, read-out: In vitro IC50, direct inhibition, CYP2D6)	IC50 [6]	Calculated R1 Value, CYP2C8 [6]	inhibition at 30 µM [1, 7]	Direct inhibition of CYP2C19 (in words) [2]	Direct inhibition of CYP1A2 (in words) [3]	inhibition at 30 µM [4, 7]	Direct inhibition of CYP2D6 (in words) [5]	Ki ([6]; equivalent to IC50/2)	Calculated R1 Value, CYP2C8 ([6]; listed as rodatristat)
CCOC(=O)[C@@H]1CC2(CCN(c3cc(O[C@H](c4ccc(Cl)cc4-c4ccccc4)C(F)(F)F)nc(N)n3)CC2)CN1 [Rodatristat ethyl, (S)-ethyl 8-(2-amino-6-((R)-1-(5-chloro-[1,1′-biphenyl]-2-yl)-2,2,2-trifluoroethoxy)pyrimidin-4-yl)-2,8-diazaspiro[4.5]decane-3-carboxylate]	13 µM	<1.02	> 30 µM	> 30 µM	Neither rodatristat ethyl nor rodatristat inhibit	> 30 µM	> 30 µM	2.8 µM	<1.02	–	–	–	–	–	–	–
Nc1nc(O[C@H](c2ccc(Cl)cc2-c2ccccc2)C(F)(F)F)cc(N2CCC3(CC2)CN[C@H](C(=O)O)C3)n1 [Rodatristat, (S)-8-(2-amino-6-((R)-1-(5-chloro-[1,1′-biphenyl]-2-yl)-2,2,2-trifluoroeth-oxy)pyrimidin-4-yl)-2,8-diazaspiro[4.5]decane-3-carboxylic acid]	> 30 µM	–	–	–	Neither rodatristat ethyl nor rodatristat inhibit	> 30 µM	–	2.8 µM	<1.02	27 to 45%	did not inhibit	did not inhibit	27 to 45%	did not inhibit	1.4 µM	<1.02
